Patent publication US10301298B2, “Methods, compounds, and compositions for the treatment of angiotensin-related diseases” (University of Southern California, priority 2013, dated 2019)
Entries after “also recorded” stand apart in the source; their conditions may differ.

Assays:
Mas [1] = target: T1, Mas (Homo sapiens, UniProt P04201); assay: Competition binding assay, displacement of fluorescent Ang(1-7) from Mas-transfected CHO cells; set-up: concentration or dose not given beside the values; conditions: CHO cells transfected with Human mas1, on ice
T1 construct: expressed in transfected cells
T1 sequence (P04201 1-325): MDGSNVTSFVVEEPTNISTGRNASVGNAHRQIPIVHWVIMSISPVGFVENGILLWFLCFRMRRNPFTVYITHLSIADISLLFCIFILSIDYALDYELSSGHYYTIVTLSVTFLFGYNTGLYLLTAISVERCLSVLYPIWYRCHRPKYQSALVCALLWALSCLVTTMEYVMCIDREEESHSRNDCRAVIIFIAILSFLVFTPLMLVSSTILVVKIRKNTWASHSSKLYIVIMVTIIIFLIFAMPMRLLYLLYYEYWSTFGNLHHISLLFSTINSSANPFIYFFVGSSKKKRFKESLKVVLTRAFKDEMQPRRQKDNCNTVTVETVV
Experimental: CHO cells stably transfected with recombinant Human mas1 proto-oncogen driven by the human cytomegalovirus were grown to 80% confluency. The cells were detached with trypsin and harvested by centrifugation. Cells were washed three times in progressively colder buffers. The final number of cells per assay was 5×10^5. All subsequent steps were performed on ice. Test compound was added to the cells for 10 minutes prior to addition of fluorescently labeled A(1-7). After 10 minutes further incubation, the cells were washed to remove unbound A(1-7) and the fluorescence bound was read at an excitation of 490 nm and an emission of 520 nm.

db/db mice = assay: Bone marrow cell counts and progenitor colonies in db/db mice; assay type: in vivo; conditions: 500 mcg/kg/day subcutaneously, 14 days
Experimental: The femurs and tibia were collected from db/db mice treated 500 mcg/kg/day Ang(1-7) or Compound 7 subcutaneously for 14 days were euphanized and the bone marrow were collected by flushing with PBS containing 2% fetal calf serum. After collection of the bone marrow, the red blood cells will be lysed with a hypotonic solution (described above), mixed with 0.04% trypan blue and the number of nucleated cells was assessed by hematocytometer under light microscopy. Aliquots of cells were then resuspended at 1×10^6 cells/ml (GM and GEMM, bone marrow), 1.5×10^6 cells/ml (BFU-E, bone marrow). One hundred μ1 of each suspension was added to 900 μl of semisolid medium containing 0.9% methyl cellulose in Iscove's MDM, 15% fetal calf serum, 1% bovine serum albumin, 10 μg/ml bovine pancreatic insulin, 200 μg/ml human transferrin, 10^−4 M 2-mercaptoethanol, 2 mM glutamine, 10 ng/ml recombinant murine interleukin 3, 10 ng/ml recombinant human interleukin 6, 50 ng/ml recombinant murine stem cell factor and 3 units/ml erthropoietin. This mixture was then added to duplicate wells of a 24 well plate. The cultures were then placed at 37° C. in a humidified atmosphere of 5% CO2 in air. At day 14, the number of progenitor colonies formed was enumerated under phase contrast microscopy.
The bone marrow cells were also cultured to assess the number of MSCs by a CFU—F assay. 2.5×10^5 cells/ml, 2 ml per well, were diluted into Mesencult medium (Stem Cell Technologies, Vancouver, BC, Canada) and 2 mL were placed in each well of a 24 well plate. The cultures were then incubated at 37° C. in a humidified atmosphere of 5% CO2 in air. At days 2, 5 and 8, the number of progenitor colonies formed was enumerated under phase contrast microscopy.

Mas [2] = target: T1, Mas; assay: NO production in CHO cells stably transfected with Human Mas1; assay type: cell-based
Experimental: Transfected cells that express Mas were used to identify and evaluate provided compounds as Mas agonists, by promoting NO production as readouts. CHO cells stably transfected with pTEJ-8 vector containing recombinant Human Mas1 clone were grown to confluency. Cells were washed three times for 30/5/5 minutes with prewarmed (37° C.) Tyrodes Salts (supplemented with 1 g/L NaHCO3, and 1.9 g/L d-Glucose). Cells were incubated for a short time in 700 μL of supplemented Tyrodes salts containing 10 μM PTIO, 100 μM DAN, and 1 mM L-arginine. When using antagonist for competition assays, cells were exposed to the inhibitor at 1×10^−7 M for 15 minutes, before additional drugs are added.
Chemicals (10^−8 to 10^−6 M or the maximum concentration found not to cause cytotoxicity) to be screened were added to the cell medium and the plates were agitated for 1 minute before being placed into the incubator for 2 hours. After 2 hours, cellular supernatants were transferred to opaque 96 well plates, and the fluorescence intensity was recorded at an ex/em of 380/425.

| Molecule | % Displacement (Mas [1]) [%] | ability to enhance NO production (fluorescence) (Mas [2]; Mas-transfected CHO cells) | NO production with co-administration of A779 (Mas [2]; with A779, selective Mas antagonist, 1×10^−7 M) | bone marrow counts (db/db mice) |
| --- | --- | --- | --- | --- |
| CCCCOC(=O)NS(=O)(=O)c1ccc(OC(F)(F)F)cc1-c1ccc(CN2CCN(C)C2=O)cn1 [Compound 8, butyl (2-(5-((3-methyl-2-oxoimidazolidin-1-yl)methyl)pyridin-2-yl)-4-(trifluoromethoxy)phenyl) sulfonylcarbamate] | 18.6 |  |  |  |
| CCCCOC(=O)NS(=O)(=O)c1ccc(OC(F)(F)F)cc1-c1ncc(Cn2ccnc2)s1 [Compound 11, butyl (2-(5-((1H-imidazol-1-yl)methyl)thiazol-2-yl)-4-(trifluoromethoxy)phenyl)sulfonylcarbamate] | 23.0 |  |  |  |
| Asp-Arg-Val-Tyr-Ile-His-Pro [Ang(1-7), reference compound] |  | concentration dependent increase in NO | back to baseline fluorescence | increase bone marrow counts; also recorded: increased the bone marrow counts |

More lines, main results first:

| % Displacement (Mas [1]) [%] | ability to enhance NO production (fluorescence) (Mas [2]; Mas-transfected CHO cells) | NO production with co-administration of A779 (Mas [2]; with A779, selective Mas antagonist, 1×10^−7 M) | Molecule | bone marrow counts (db/db mice) |
| --- | --- | --- | --- | --- |
| 17.3 |  |  | CCCCOC(=O)NS(=O)(=O)c1ccc(OC(F)(F)F)cc1-c1ccc(CN2CCOCC2)cn1 [Compound 9, butyl (2-(5-(morpholinomethyl)pyridin-2-yl)-4-(trifluoromethoxy)phenyl)sulfonyl-carbamate] |  |
| 22.0 |  |  | CCCCOC(=O)NS(=O)(=O)c1ccc(OC(F)(F)F)cc1-c1ccc(CN2CCN(C)CC2)cn1 [Compound 10, butyl (2-(5-((4-methylpiperazin-1-yl)methyl)pyridin-2-yl)-4-(trifluoromethoxy)phenyl)sulfonylcarbamate] |  |
